Activity calls are given as the source filed them. No cut-off for these calls is given here.
Columns and labels:
B16-F1 = assay: Inhibition of cell proliferation of mouse B16-F1 cells at 1.25 to 10 uM incubated for 72 hrs by SRB assay; assay type: functional, cell-based
Mus musculus [1] = species: Mus musculus; assay: Inhibition of calcium channel in mouse cortical neurons assessed as effect on Ca2+ currents; assay type: functional
[2] = biological target: Transient receptor potential cation channel subfamily M member 7 (Rattus norvegicus) (UniProt Q925B3); assay: Inhibition of TRPM7 in Sprague-Dawley rat retinal explants dissociated and subjected to 1 hr oxygen-glucose deprivation assessed as reduction in retinal cell death at 1 and 5 uM
Sequence of Transient receptor potential cation channel subfamily M member 7 (Rattus norvegicus) (Q925B3 whole entry): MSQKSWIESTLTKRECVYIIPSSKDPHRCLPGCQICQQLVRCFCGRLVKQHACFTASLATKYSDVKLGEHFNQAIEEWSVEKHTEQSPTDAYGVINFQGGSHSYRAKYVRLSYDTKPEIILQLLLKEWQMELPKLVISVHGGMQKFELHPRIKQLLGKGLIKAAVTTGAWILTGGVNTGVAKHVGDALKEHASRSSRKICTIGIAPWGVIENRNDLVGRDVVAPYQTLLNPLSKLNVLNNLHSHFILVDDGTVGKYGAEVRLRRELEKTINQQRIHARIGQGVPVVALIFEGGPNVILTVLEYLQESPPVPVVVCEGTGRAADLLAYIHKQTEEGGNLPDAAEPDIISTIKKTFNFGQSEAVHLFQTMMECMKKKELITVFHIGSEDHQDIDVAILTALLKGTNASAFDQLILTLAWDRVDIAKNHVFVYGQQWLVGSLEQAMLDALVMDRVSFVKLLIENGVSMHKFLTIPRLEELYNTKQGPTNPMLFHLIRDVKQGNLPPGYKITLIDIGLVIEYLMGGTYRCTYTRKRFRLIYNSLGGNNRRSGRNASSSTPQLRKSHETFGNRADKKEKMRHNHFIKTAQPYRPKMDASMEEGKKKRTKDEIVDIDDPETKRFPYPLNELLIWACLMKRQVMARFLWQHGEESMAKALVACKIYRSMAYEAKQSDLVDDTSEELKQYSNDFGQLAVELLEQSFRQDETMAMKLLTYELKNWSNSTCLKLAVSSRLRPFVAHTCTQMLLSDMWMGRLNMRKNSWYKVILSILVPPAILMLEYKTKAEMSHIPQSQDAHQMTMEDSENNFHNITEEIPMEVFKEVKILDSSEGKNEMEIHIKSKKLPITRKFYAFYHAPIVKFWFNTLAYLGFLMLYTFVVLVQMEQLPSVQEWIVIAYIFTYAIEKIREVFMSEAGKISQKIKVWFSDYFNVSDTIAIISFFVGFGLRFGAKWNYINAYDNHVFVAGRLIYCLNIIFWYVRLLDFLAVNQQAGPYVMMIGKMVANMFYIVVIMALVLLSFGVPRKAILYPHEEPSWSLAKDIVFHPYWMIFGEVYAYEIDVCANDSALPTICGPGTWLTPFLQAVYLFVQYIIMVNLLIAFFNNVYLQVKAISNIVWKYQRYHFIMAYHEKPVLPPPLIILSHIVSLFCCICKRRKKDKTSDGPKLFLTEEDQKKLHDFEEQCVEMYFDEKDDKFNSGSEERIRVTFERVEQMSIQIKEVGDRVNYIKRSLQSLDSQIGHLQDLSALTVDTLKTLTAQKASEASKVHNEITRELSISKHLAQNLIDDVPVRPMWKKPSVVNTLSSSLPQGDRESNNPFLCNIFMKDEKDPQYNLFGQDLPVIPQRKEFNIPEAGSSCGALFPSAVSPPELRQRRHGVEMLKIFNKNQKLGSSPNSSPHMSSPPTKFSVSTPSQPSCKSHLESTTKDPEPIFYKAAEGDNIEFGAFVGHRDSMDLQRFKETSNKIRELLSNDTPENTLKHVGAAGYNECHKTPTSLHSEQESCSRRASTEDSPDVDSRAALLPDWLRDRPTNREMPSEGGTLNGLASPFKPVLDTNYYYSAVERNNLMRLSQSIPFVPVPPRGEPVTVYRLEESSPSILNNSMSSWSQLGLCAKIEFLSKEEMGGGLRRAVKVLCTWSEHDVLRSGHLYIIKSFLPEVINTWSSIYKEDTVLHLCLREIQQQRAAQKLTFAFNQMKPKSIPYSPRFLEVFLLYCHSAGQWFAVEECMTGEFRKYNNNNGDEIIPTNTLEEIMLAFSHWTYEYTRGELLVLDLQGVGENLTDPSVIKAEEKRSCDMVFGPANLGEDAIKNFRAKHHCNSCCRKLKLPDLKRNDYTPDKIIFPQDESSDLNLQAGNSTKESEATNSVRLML

Y79 = assay: Inhibition of cell proliferation of human Y79 cells at 10 uM incubated for 48 to 96 hrs; assay type: functional
B16-F10 = assay: Inhibition of cell proliferation of mouse B16F10 cells at 1.25 to 10 uM incubated for 72 hrs by SRB assay; assay type: functional, cell-based
[3] = biological target: Transient receptor potential cation channel subfamily M member 7 (Mus musculus) (UniProt Q923J1); assay: Inhibition of TRPM7 in mouse primary neuronal cells exposed to oxygen glucose deprivation condition for 1 to 3 hrs assessed as reduction in TRPM7-mediated anoxic cell death dosed after oxygen glucose deprivation condition by propidium iodide uptake assay; details: Primary neuron
Sequence of Transient receptor potential cation channel subfamily M member 7 (Mus musculus) (Q923J1 whole entry): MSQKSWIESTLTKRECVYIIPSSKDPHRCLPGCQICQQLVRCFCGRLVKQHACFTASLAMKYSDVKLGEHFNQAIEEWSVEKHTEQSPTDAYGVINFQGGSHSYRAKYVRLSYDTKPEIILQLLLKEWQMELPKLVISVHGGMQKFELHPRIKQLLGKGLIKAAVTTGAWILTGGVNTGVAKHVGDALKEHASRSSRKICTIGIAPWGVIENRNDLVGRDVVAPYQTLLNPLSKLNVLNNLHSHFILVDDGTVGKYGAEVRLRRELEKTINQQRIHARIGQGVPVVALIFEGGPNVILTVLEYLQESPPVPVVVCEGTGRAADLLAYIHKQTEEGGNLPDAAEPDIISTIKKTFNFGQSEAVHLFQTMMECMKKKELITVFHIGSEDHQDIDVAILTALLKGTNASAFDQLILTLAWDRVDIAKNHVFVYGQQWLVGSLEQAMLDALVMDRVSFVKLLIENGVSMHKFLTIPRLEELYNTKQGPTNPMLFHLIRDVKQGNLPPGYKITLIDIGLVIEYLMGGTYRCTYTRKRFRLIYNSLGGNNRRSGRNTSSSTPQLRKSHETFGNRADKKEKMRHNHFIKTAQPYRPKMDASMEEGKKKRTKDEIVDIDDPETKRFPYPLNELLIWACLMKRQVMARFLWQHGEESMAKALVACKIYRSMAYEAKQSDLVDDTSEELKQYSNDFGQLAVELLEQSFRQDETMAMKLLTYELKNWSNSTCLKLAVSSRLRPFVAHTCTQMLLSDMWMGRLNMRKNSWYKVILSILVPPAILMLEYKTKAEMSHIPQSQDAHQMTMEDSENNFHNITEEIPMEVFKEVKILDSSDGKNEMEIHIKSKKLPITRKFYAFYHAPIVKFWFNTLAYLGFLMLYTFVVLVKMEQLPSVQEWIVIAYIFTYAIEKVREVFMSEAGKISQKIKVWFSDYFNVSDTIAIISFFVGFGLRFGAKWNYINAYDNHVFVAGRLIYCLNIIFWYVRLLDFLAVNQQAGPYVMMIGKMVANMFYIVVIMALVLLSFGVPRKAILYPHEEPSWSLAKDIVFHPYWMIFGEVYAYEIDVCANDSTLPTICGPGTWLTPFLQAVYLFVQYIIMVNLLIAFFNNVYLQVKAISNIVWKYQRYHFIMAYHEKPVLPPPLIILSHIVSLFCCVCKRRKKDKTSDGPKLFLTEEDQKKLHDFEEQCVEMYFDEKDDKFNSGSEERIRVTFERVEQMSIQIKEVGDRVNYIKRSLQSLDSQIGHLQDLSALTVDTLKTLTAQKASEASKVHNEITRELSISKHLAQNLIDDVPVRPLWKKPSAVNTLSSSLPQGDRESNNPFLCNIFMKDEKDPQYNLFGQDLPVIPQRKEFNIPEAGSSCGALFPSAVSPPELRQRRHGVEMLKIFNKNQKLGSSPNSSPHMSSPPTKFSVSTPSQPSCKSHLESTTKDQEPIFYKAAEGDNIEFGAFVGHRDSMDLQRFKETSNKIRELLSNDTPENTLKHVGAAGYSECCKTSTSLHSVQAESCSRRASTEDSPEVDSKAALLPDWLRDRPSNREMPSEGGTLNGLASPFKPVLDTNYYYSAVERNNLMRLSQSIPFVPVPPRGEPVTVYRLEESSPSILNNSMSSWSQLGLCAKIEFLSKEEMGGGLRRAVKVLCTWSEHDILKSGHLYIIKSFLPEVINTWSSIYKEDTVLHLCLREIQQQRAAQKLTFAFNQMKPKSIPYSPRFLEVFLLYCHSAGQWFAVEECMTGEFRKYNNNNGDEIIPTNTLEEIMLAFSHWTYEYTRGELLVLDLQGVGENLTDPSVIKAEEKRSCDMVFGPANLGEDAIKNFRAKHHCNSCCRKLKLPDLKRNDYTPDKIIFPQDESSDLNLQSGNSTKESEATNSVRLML

[4] = biological target: Transient receptor potential cation channel subfamily M member 7 (Mus musculus) (UniProt Q923J1); assay: Inhibition of TRPM7 in mouse mouse primary cortical neurons exposed to 2 hrs oxygen glucose deprivation condition assessed as reduction in TRPM7-mediated anoxic cell death measured after 20 hrs by propidium iodide uptake assay; assay type: cell-based; details: Cerebral cortex neuron
[5] = Inhibition of cell proliferation of mouse NIH/3T3 cells at 1.25 to 10 uM incubated for 72 hrs by propidium iodide staining assay; assay type: cell-based; details: nih3t3, 72 h
[6] = biological target: Transient receptor potential cation channel subfamily M member 7 (Rattus norvegicus) (UniProt Q925B3); assay: Inhibition of TRPM7 in rat H9C2 cells exposed to oxygen glucose deprivation condition for 1 to 6 hrs assessed as reduction in TRPM7-mediated anoxic cell death in presence of 1 uM nifedipine by propidium iodide uptake assay; assay type: cell-based
H9c2 [7] = assay: Toxicity against rat H9c2 cells at 10 uM; assay type: cell-based; details: h9c2, 10 µM
SW13 [8] = assay: Inhibition of cell proliferation of human SW13 cells at 1.25 to 10 uM incubated for 72 hrs by SRB assay; assay type: functional, cell-based
[9] = biological target: Transient receptor potential cation channel subfamily M member 7 (Mus musculus) (UniProt Q923J1); assay: Inhibition of Tet-induced Flag-tagged mouse TRPM7 expressed in HEK293 cells assessed as inhibition of channel-mediated cell death in presence of Mg2+ incubated for 24 to 48 hrs by propidium iodide uptake assay; assay type: cell-based; design: concentration or dose not given beside the values; details: concentration not given here
U2OS = assay: Inhibition of cell proliferation of human U2OS cells at 10 uM incubated for 48 to 96 hrs; assay type: functional
MDA-MB-231 [10] = assay: Inhibition of cell proliferation of human MDA-MB-231 cells at 10 uM incubated for 48 to 96 hrs; assay type: functional
[11] = Inhibition of cell proliferation of mouse B16-F1 cells at 10 uM incubated for 48 to 96 hrs; assay type: functional
SW13 [12] = assay: Inhibition of cell proliferation of human SW13 cells at 10 uM incubated for 48 to 96 hrs; assay type: functional
Mus musculus [13] = species: Mus musculus; assay: Inhibition of sodium channel in mouse cortical neurons assessed as effect on Na+ currents
[14] = biological target: Transient receptor potential cation channel subfamily M member 7 (Rattus norvegicus) (UniProt Q925B3); assay: Inhibition of TRPM7 in rat retinal explants exposed to oxygen glucose deprivation condition for 1 hr assessed as protection against TRPM7-mediated cell death at by propidium iodide uptake assay
HeLa = assay: Inhibition of cell proliferation of human HeLa cells at 10 uM incubated for 48 to 96 hrs; assay type: functional
Mus musculus [15] = species: Mus musculus; assay: Inhibition of potassium channel in mouse cortical neurons assessed as reduction in potassium currents
MCF7 = assay: Inhibition of cell proliferation of human MCF7 cells at 10 uM incubated for 48 to 96 hrs; assay type: functional
H9c2 [16] = assay: Toxicity against rat H9c2 cells at 5 uM; assay type: cell-based; details: h9c2, 5 µM
[17] = biological target: Transient receptor potential cation channel subfamily M member 7 (Rattus norvegicus) (UniProt Q925B3); assay: Inhibition of TRPM7 in Sprague-Dawley rat retinal explants subjected to 1 hr oxygen-glucose deprivation assessed as reduction in retinal ischemia at 5 uM
[18] = biological target: Transient receptor potential cation channel subfamily M member 7 (Rattus norvegicus) (UniProt Q925B3); assay: Inhibition of TRPM7 in rat H9C2 cells assessed as reduction in channel currents at 0.3 to 30 uM by whole cell patch clamp assay; assay type: cell-based
[19] = Inhibition of cell proliferation of mouse B16F10 cells at 10 uM incubated for 48 to 96 hrs; assay type: functional; details: B16-F10
[20] = biological target: Transient receptor potential cation channel subfamily M member 7 (Mus musculus) (UniProt Q923J1); assay: Inhibition of Tet-induced Flag-tagged mouse TRPM7 expressed in HEK293 cells assessed as reduction in channel currents at 0.3 to 30 uM by whole cell patch clamp assay; assay type: cell-based
[21] = biological target: Transient receptor potential cation channel subfamily M member 7 (Mus musculus) (UniProt Q923J1); assay: Inhibition of TRPM7 in mouse primary neuronal cells exposed to oxygen glucose deprivation condition for 1 to 3 hrs assessed as reduction in TRPM7-mediated anoxic cell death dosed before oxygen glucose deprivation condition by propidium iodide uptake assay; details: Primary neuron
[22] = Inhibition of cell proliferation of human DMS53 cells at 10 uM incubated for 48 to 96 hrs; assay type: functional; details: DMS-53
MDA-MB-231 [23] = assay: Inhibition of cell proliferation of human MDA-MB-231 cells at 1.25 to 10 uM incubated for 72 hrs by SRB assay; assay type: functional, cell-based
[24] = biological target: Transient receptor potential cation channel subfamily M member 7 (Rattus norvegicus) (UniProt Q925B3); assay: Inhibition of TRPM7 in cultured rat retinal ganglion cells exposed to oxygen glucose deprivation condition for 3 hrs assessed as protection against TRPM7-mediated cell death at by propidium iodide uptake assay; design: scale not given: the % may be the effect or the level left
[25] = Inhibition of cell proliferation of human WERI cells at 10 uM incubated for 48 to 96 hrs; assay type: functional
[26] = biological target: Transient receptor potential cation channel subfamily M member 7 (Rattus norvegicus) (UniProt Q925B3); assay: Inhibition of TRPM7 in rat H9c2 cells assessed as protection against oxygen glucose deprivation-induced cell death at 0.05 to 5 uM; assay type: cell-based
[27] = biological target: Transient receptor potential cation channel subfamily M member 7 (Rattus norvegicus) (UniProt Q925B3); assay: Inhibition of TRPM7 in rat H9c2 cells assessed as protection against oxygen glucose deprivation-induced cell death at 0.05 to 5 uM applied during OGD; assay type: cell-based
[28] = biological target: Transient receptor potential cation channel subfamily M member 7 (Mus musculus) (UniProt Q923J1); assay: Inhibition of TRPM7 in mouse AML12 cells assessed as protection against oxygen glucose deprivation-induced cell death at 0.5 to 5 uM; assay type: cell-based
[29] = biological target: Transient receptor potential cation channel subfamily M member 7 (Rattus norvegicus) (UniProt Q925B3); assay: Inhibition of TRPM7 in rat H9c2 cells assessed as protection against oxygen glucose deprivation-induced cell death at 0.05 to 5 uM pre-treated for 24 hrs before OGD in presence of 1 uM nifedipine; assay type: cell-based
[30] = biological target: Transient receptor potential cation channel subfamily M member 7 (Rattus norvegicus) (UniProt Q925B3); assay: Inhibition of TRPM7 in rat H9c2 cells assessed as protection against oxygen glucose deprivation-induced cell death at 0.05 to 5 uM in presence of 1 uM nifedipine; assay type: cell-based
Mus musculus [31] = assay: Toxicity in mouse up to 150 uM, iv; assay type: organism-based; details: in vivo
[32] = biological target: Transient receptor potential cation channel subfamily M member 7 (Rattus norvegicus) (UniProt Q925B3); assay: Inhibition of TRPM7 in rat H9C2 cells exposed to 6 hrs oxygen glucose deprivation condition followed by 2 hrs recovery assessed as reduction in TRPM7-mediated anoxic cell death at 0.05 to 5 uM by propidium iodide uptake assay; assay type: cell-based
[33] = biological target: Transient receptor potential cation channel subfamily M member 7 (Rattus norvegicus) (UniProt Q925B3); assay: Inhibition of TRPM7 in rat H9c2 cells assessed as protection against oxygen glucose deprivation-induced cell death at 0.05 to 5 uM pre-treated for 24 hrs before OGD; assay type: cell-based
[34] = biological target: Transient receptor potential cation channel subfamily M member 7 (Mus musculus) (UniProt Q923J1); assay: Inhibition of TRPM7 in mouse mouse primary cortical neurons exposed to 1 hrs oxygen glucose deprivation condition assessed as reduction in TRPM7-mediated anoxic cell death at 1.25 to 10 uM measured after 20 hrs by propidium iodide uptake assay; assay type: cell-based; details: Cerebral cortex neuron

SMILES | inhibition (Mus musculus [1]) | inhibition [2] | inhibition at 10 µM (Y79) [%] | inhibition [3] | inhibition [4] | Activity [5] | inhibition [6] | inhibition [9] [%] | inhibition at 10 µM (MDA-MB-231 [10]) [%] | inhibition at 10 µM [11] [%] | inhibition at 10 µM (SW13 [12]) [%] | inhibition (Mus musculus [13]) | inhibition [14] | inhibition at 10 µM (HeLa) [%] | inhibition (Mus musculus [15]) | inhibition at 10 µM (MCF7) [%] | inhibition [17] | inhibition [18] | inhibition at 10 µM [19] [%] | inhibition [20] | further results
O=C(Nc1ccc(F)cc1)C(Sc1ccc(Cl)cc1)c1ccccc1 (configuration not stated) | inactive | Active | > 20 | Active | Active | Non-toxic | Active | 80 | > 20 | > 20 | > 20 | inactive | Active | > 20 | Active | > 20 | Active | Active | > 20 | Active | inhibition (B16-F1): Active; inhibition (B16-F10): Active; Activity (H9c2 [7]): Toxic; inhibition (SW13 [8]): Active; inhibition at 10 µM (U2OS): > 20%; Activity (H9c2 [16]): Non-toxic; inhibition [21]: Active; inhibition at 10 µM [22]: > 20%; inhibition (MDA-MB-231 [23]): Active; Activity [24]: 66%
Cc1ccc2c(c1)CCCN2C(=O)c1sc2ccccc2c1Cl | inactive | Active | > 20 | Active | Active | Non-toxic | Active | 80 | > 20 | > 20 | > 20 | inactive | Active | > 20 | Active | > 20 | Active | Active | > 20 | Active | inhibition at 10 µM [25]: > 20%; inhibition [26]: Active; inhibition [27]: Active; inhibition [28]: Active; inhibition [29]: Active; inhibition [30]: Active; Activity (Mus musculus [31]): Non-toxic; inhibition [32]: Active; inhibition [21]: Active; inhibition [33]: Active; inhibition [34]: Active; Activity [24]: 66%
